The record followed here is patent US20250127170A1, “TRIAZINE HERBICIDAL COMPOUNDS” (SYNGENTA CROP PROTECTION AG, priority 2021, published 2025).

Structures are written as SMILES.

Common to all, as to format: in vivo
Conditions in all cases: 312 h, evaluated after 13 days, 100=total damage to plant, 0=no damage to plant

In experiment [1] the test system is Amaranthus palmeri (AMAPA). Kind of experiment: Pre-emergence biological efficacy. The essentials:
(§1)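 Seeds sown in standard soil, grown one day in glasshouse (24/19° C, 16 h light), then sprayed pre-emergence with compound formulated in IF50 and diluted in 0.2% Genapol XO80 to final dose. Plants kept at 24/18° C, 15 h light, 50% humidity; damage scored 0-100 after 13 days.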

Experiment [2] concerns Echinochloa crus-galli (ECHCG). Kind of experiment: Pre-emergence biological efficacy. An outline of the steps:
as §1

Experiment [3] relates to Euphorbia heterophylla (EPHHL). Kind of experiment: Pre-emergence biological efficacy. The essentials: as §1
The test system of experiment [4] is Ipomoea hederacea (IPOHE). The experiment is described as follows: Pre-emergence biological efficacy. The essentials: as §1
For experiment [5], the system named is Lolium perenne (LOLPE). Kind of experiment: Pre-emergence biological efficacy. An outline of the steps:
as §1

Experiment [6] concerns Setaria faberi (SETFA). The experiment is described as follows: Pre-emergence biological efficacy. An outline of the steps:
as §1

For experiment [7], the system named is Amaranthus palmeri (AMAPA). Kind of experiment: Post-emergence biological efficacy. The essentials:
(§2)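 Plants grown 14 days in glasshouse (24/19 °C, 16 h light), then sprayed post-emergence with IF50-formulated compound diluted in 0.2% Genapol XO80 to the target dose. Damage scored 13 days later on 0–100 scale (100 = total damage).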

In experiment [8] the test system is Chenopodium album (CHEAL). Kind of experiment: Post-emergence biological efficacy. The essentials:
as §2

Experiment [9] has as its system Digitaria sanguinalis (DIGSA). Kind of experiment: Post-emergence biological efficacy. The essentials:
as §2

For experiment [10], the system named is Echinochloa crus-galli (ECHCG). The experiment is described as follows: Post-emergence biological efficacy. The essentials: as §2
The test system of the next experiment is Eleusine indica (ELEIN). The experiment is described as follows: Post-emergence biological efficacy. The essentials:
as §2

The test system of experiment [11] is Euphorbia heterophylla (EPHHL). Kind of experiment: Post-emergence biological efficacy. The essentials:
as §2

Experiment [12] has as its system Ipomoea hederacea (IPOHE). Kind of experiment: Post-emergence biological efficacy. An outline of the steps: as §2
Experiment [13] has as its system Lolium perenne (LOLPE). The experiment is described as follows: Post-emergence biological efficacy. An outline of the steps:
as §2

Experiment [14] concerns Setaria faberi (SETFA). The experiment is described as follows: Post-emergence biological efficacy. An outline of the steps: as §2

Usually pest or weed control stands for how far the test organism was held down. Regarding `CCOC(=O)CC1(NC(=O)c2cc(-n3c(=O)n(C)c(=S)n(C)c3=O)c(F)cc2Cl)CC1` [Compound 1-744, Ethyl 2-[1-[[2-chloro-5-(3,5-dimethyl-2,6-dioxo-4-thioxo-1,3,5-triazinan-1-yl)-4-fluoro-benzoyl]amino]cyclopropyl]acetate], the pest or weed control at 250 g/ha is 40% in experiment [1]; 80% in experiment [2]; 70% in experiment [3]; 10% in [4]; 60% in the experiment with Lolium perenne (LOLPE) [5]; 50% in the experiment with Setaria faberi (SETFA) [6]. Also, the pest or weed control at 250 g/ha was 30% in experiment [7]; 60% in experiment [8]; 20% in [9]; 30% in [10]; 50% with Eleusine indica (ELEIN); 70% in experiment [11]. For the same compound, the pest or weed control at 250 g/ha in [12] was determined as 30%; in the experiment with Lolium perenne (LOLPE) [13], 60%; with Setaria faberi (SETFA) [14], 10%.
